Measurements: patent US20210403435A1, “HERBICIDAL COMPOUNDS” (SYNGENTA CROP PROTECTION AG, priority 2018, published 2021)

Tests used:
Experiment in all cases: Post-emergence efficacy, glasshouse, evaluated after 13 days
Type in all cases: in vivo
[1] = test system: Digitaria sanguinalis (DIGSA); conditions: Digitaria sanguinalis, 312 h; post-emergence application, 500 g/Ha, evaluated after 13 days; read-out: Control of weed species DIGSA (100=total damage to plant; 0=no damage to plant)
Summary of the method: (§1)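 Injury assessed 13 days after a post-emergence spray, 0 = no damage and 100 = total damage. Spray liquid: compound in acetone/IF50 (Emulsogen EL360, N-methylpyrrolidone, Dowanol DPM), diluted with 0.25% or 1% sodium lauryl ether sulphate plus 1% ammonium sulphate.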

[2] = test system: Amaranthus palmeri (AMAPA); conditions: Amaranthus palmeri, 312 h; post-emergence application, 500 g/Ha, evaluated after 13 days; read-out: Control of weed species AMAPA (100=total damage to plant; 0=no damage to plant)
Summary of the method: as §1

[3] = test system: Euphorbia heterophylla (EPHHL); conditions: Euphorbia heterophylla, 312 h; post-emergence application, 500 g/Ha, evaluated after 13 days; read-out: Control of weed species EPHHL (100=total damage to plant; 0=no damage to plant)
Summary of the method: as §1

[4] = test system: Setaria faberi (SETFA); conditions: Setaria faberi, 312 h; post-emergence application, 500 g/Ha, evaluated after 13 days; read-out: Control of weed species SETFA (100=total damage to plant; 0=no damage to plant)
Summary of the method: as §1

[5] = test system: Chenopodium album (CHEAL); conditions: Chenopodium album, 312 h; post-emergence application, 500 g/Ha, evaluated after 13 days; read-out: Control of weed species CHEAL (100=total damage to plant; 0=no damage to plant)
Summary of the method: as §1

[6] = test system: Ipomoea hederacea (IPOHE); conditions: Ipomoea hederacea, 312 h; post-emergence application, 500 g/Ha, evaluated after 13 days; read-out: Control of weed species IPOHE (100=total damage to plant; 0=no damage to plant)
Summary of the method: as §1

[7] = test system: Lolium perenne (LOLPE); conditions: Lolium perenne, 312 h; post-emergence application, 500 g/Ha, evaluated after 13 days; read-out: Control of weed species LOLPE (100=total damage to plant; 0=no damage to plant)
Summary of the method: as §1

[8] = test system: Eleusine indica (ELEIN); conditions: Eleusine indica, 312 h; post-emergence application, 500 g/Ha, evaluated after 13 days; read-out: Control of weed species ELEIN (100=total damage to plant; 0=no damage to plant)
Summary of the method: as §1

[9] = test system: Echinochloa crus-galli (ECHCG); conditions: Echinochloa crus-galli, 312 h; post-emergence application, 500 g/Ha, evaluated after 13 days; read-out: Control of weed species ECHCG (100=total damage to plant; 0=no damage to plant)
Summary of the method: as §1

Row | SMILES | pest or weed control at 500 g/ha [1] [%] | pest or weed control at 500 g/ha [2] [%] | pest or weed control at 500 g/ha [3] [%] | pest or weed control at 500 g/ha [4] [%] | pest or weed control at 500 g/ha [5] [%] | pest or weed control at 500 g/ha [6] [%] | pest or weed control at 500 g/ha [7] [%] | pest or weed control at 500 g/ha [8] [%] | pest or weed control at 500 g/ha [9] [%]
1 | N#CCCNC(=O)c1cc[n+](CCC(=O)O)nc1 [Compound A113] | 100 | 100 | 90 | 100 | 80 | 30 | 90 | 100 | 90
2 | C#CCCNC(=O)c1cc[n+](CCC(=O)O)nc1 [Compound A114] | 100 | 100 | 80 | 100 | 90 | 60 | 80 | 100 | 90
3 | O=C(O)CC[n+]1ccc(C(=O)NCc2ccccn2)cn1 [Compound A115] | 70 | 100 | 70 | 70 | 70 | 20 | 70 | 100 | 70
4 | Cn1nccc1NC(=O)c1cc[n+](CCC(=O)O)nc1 [Compound A116] | 60 | 40 | 50 | 40 | 20 | 10 | 10 | 40 | 40
5 | CC[S+]([O-])CCNC(=O)c1cc[n+](CCC(=O)O)nc1 (stereo not drawn) [Compound A117] | 100 | 100 | 90 | 90 | 80 | 40 | 50 | 50 | 60
6 | CCS(=O)(=O)CCNC(=O)c1cc[n+](CCC(=O)O)nc1 [Compound A118] | 100 | 100 | 90 | 90 | 100 | 40 | 50 | 50 | 40
7 | CCSCCNC(=O)c1cc[n+](CCC(=O)O)nc1 [Compound A120] | 100 | 100 | 90 | 70 | 80 | 10 | 40 | 50 | 50
8 | CC(CS(C)(=O)=O)NC(=O)c1cc[n+](CCC(=O)O)nc1 (stereo not drawn) [Compound A122] | 100 | 100 | 70 | 60 | 90 | 60 | 60 | 70 | 90
9 | CC(CO)NC(=O)c1cc[n+](CCC(=O)O)nc1 (stereo not drawn) [Compound A123] | 100 | 100 | 90 | 100 | 90 | 50 | 50 | 100 | 90
10 | O=C(O)CC[n+]1ccc(C(=O)Nc2cnccn2)cn1 [Compound A124] | 70 | 20 | 30 | 70 | 30 | 20 | 10 | 30 | 60
11 | C=CCNC(=O)c1cc[n+](CCCOS(=O)(=O)[O-])nc1 [Compound A125] | 60 | 30 | 60 | 50 | 60 | 50 | 60 | 30 | 70
12 | O=C(NC1CC1)c1cc[n+](CCCOS(=O)(=O)[O-])nc1 [Compound A126] | 40 | 10 | 60 | 70 | 60 | 50 | 50 | 40 | 60
13 | CC(O)CCNC(=O)c1cc[n+](CCC(=O)O)nc1 (stereo not drawn) [Compound A127] | 100 | 100 | 70 | 100 | 80 | 30 | 80 | 100 | 50
14 | CC(O)CNC(=O)c1cc[n+](CCC(=O)O)nc1 (stereo not drawn) [Compound A128] | 100 | 100 | 100 | 90 | 90 | 30 | 80 | 90 | 40
15 | CC(=O)CNC(=O)c1cc[n+](CCC(=O)O)nc1 [Compound A129] | 100 | 100 | 80 | 100 | 100 | 20 | 70 | 90 | 60
16 | CC(=O)CCNC(=O)c1cc[n+](CCC(=O)O)nc1 [Compound A130] | 100 | 100 | 20 | 100 | 90 | 10 | 70 | 70 | 50
17 | CC1(C)CC(NC(=O)c2cc[n+](CCC(=O)O)nc2)=NO1 [Compound A131] | 30 | 30 | 90 | 30 | 10 | 30 | 0 | 20 | 30
18 | COCC(C)NC(=O)c1cc[n+](CCC(=O)O)nc1 (stereo not drawn) [Compound A132] | 100 | 100 | 70 | 100 | 100 | 40 | 90 | 100 | 90
19 | CN1CCN(C(=O)c2cc[n+](CCC(=O)O)nc2)CC1 [Compound A133] | 90 | 20 | 20 | 70 | 10 | 10 | 0 | 50 | 60
20 | CCC1(NC(=O)c2cc[n+](CCC(=O)O)nc2)CC1 [Compound A134] | 100 | 100 | 40 | 60 | 90 | 20 | 90 | 90 | 100
